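Each compound was tested at five concentrations against cells in 96-well plates for 48 hours. TGI marks complete inhibition of growth.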 *1 amine or outer side, *2 acyl side, *3 side chain or, on linkers, in order; H or OH if unused. Where a SMILES comes first, the peptide text is derived from it. Bridges are numbered along the chain shown (N, C = ends). [ ]: non-standard residue; d: D form. ξ: configuration not given here. X4 = CCC(C)C(N[*:1])C(O)CC(=O)O[C@H](C(=O)C(C)C(=O)[*:2])C(C)C; NMeY = CN[C@@H](Cc1ccc(O)cc1)C(=O)O; X9 = O=C([C@@H]1CC(O)CN1[*:1])[*:2]; ξNMeL = CNC(CC(C)C)C(=O)O; ξT = CC(O)C(N)C(=O)O
Assays:
Assay in all cases: inhibition of tumour cell growth, NCI panel, 48 h
DMS 273 small cell lung = tested on: DMS 273 small cell lung
HOP-18 NSCLC = tested on: HOP-18 NSCLC
LXFL 529 NSCLC = tested on: LXFL 529 NSCLC
RXF-631 renal = tested on: RXF-631 renal
XF 498 CNS = tested on: XF 498 CNS
MDA-N = tested on: MDA-N
DMS 114 small cell lung = tested on: DMS 114 small cell lung

Row | Structure (SMILES) | TGI (DMS 273 small cell lung) [µM] | TGI (HOP-18 NSCLC) [µM] | TGI (LXFL 529 NSCLC) [µM] | TGI (RXF-631 renal) [µM] | TGI (XF 498 CNS) [µM] | TGI (MDA-N) [µM] | TGI (DMS 114 small cell lung) [µM]
1 | CCCOc1ccc(/C=C/c2cc(OC)c(OC)c(OC)c2)cc1 | 11.7 | > 100 | > 100 | > 100 | 84.9 |  | 
2 | O=C(O)CC(Cc1ccc2c(c1)OCO2)C(=O)O (stereo not drawn) |  |  |  |  |  | > 100 | 
3 | CC(=O)/C=C1/c2ccccc2N(C(C)=O)C1O (stereo not drawn) | > 100 | > 100 | > 100 |  |  |  | > 100
4 | CN1C(c2ccccc2)CC(=Nc2ccccc2)CC1c1ccccc1 (stereo not drawn) | 22 |  | 16.4 | 67.6 |  |  | 
5 | COC(=O)c1nc(-c2ccc(Cl)c(Cl)c2)nc2ccccc12 | > 100 | 4.99 | > 100 | > 100 | 19.7 |  | > 100
6 | C=CCOc1cc2c(cc1C(C)c1ccc(OC)cc1)OCO2 (stereo not drawn) | > 100 |  | 63.9 |  | 0.753 | > 100 | 0.838
7 | COc1ccc2[nH]c3c(cnn4cnnc34)c2c1 | > 100 | > 100 | > 100 | > 100 |  |  | > 100
8 | Cc1ccc2sc3cc(=O)cc(C)c-3nc2c1 | > 100 | > 100 | > 100 | > 100 |  |  | > 100
9 | CCCOc1ccc(/C=C\c2cc(OC)c(OC)c(OC)c2)cc1 | > 100 | > 100 | > 100 | > 100 | > 100 |  | > 100
10 | Cc1cc2c(C(C)C)c(O)c(O)c3coc(/c1=c1/c(C)cc4c(C(C)C)c(=O)c(=O)c5coc1c45)c32 | 13.8 |  | 12.7 | 22 | 17.4 |  | 6.48
11 | CCC(C)C1NC(=O)C(NC(=O)C(CC(C)C)N(C)C(=O)[C@@H]2CC(O)CN2)C(C)OC(=O)[C@H](Cc2ccc(OC)cc2)N(C)C(=O)[C@@H]2CCCN2C(=O)[C@H](CC(C)C)NC(=O)C(C)C(=O)[C@H](C(C)C)OC(=O)CC1O (stereo partly drawn) (H-[X9][ξNMeL][ξT][X4]LP[NMeY](Me); ester 3-C) |  |  |  |  |  | 0.106 | 
12 | CCc1ccccc1NC(=O)CCc1nc(=S)[nH][nH]1 | > 100 |  | > 100 | > 100 | > 100 |  | > 100
13 | Cc1cc2c(cn1)C(=O)OCC2 |  | > 100 | > 100 |  | > 100 |  | > 100
14 | Cc1ccccc1C(C#N)/C(=N/NC(=O)c1cc2ccccc2cc1O)C(=O)Nc1cccc(Cl)c1 (stereo not drawn) | 32.5 | 73.4 | > 100 |  | 73.3 |  | 51.8
15 | C/C(=N\NC(N)=S)c1ccc(/C(C)=N/NC(N)=S)cc1 |  | > 100 | > 100 | > 100 | > 100 |  | > 100
16 | CC1(C)CCSC(/C=C/c2ccccc2)=N1 |  |  |  |  |  | 24.8 | 
17 | COc1ccccc1NC(=O)CC(=O)n1nc(C)c(N=Nc2ccccc2F)c1C | > 100 | > 100 | > 100 |  | > 83.3 |  | > 100
18 | C/C(=N\NC(=S)N(C)C)c1ncc[nH]1 |  | > 100 | > 100 |  | > 100 |  | 39.8
19 | CC(C)=CC(=O)Cc1nc2ccccc2[nH]c1=O | > 100 | > 100 | > 100 | > 100 |  |  | 

Row | Structure (SMILES) | TGI (DMS 273 small cell lung) [µM] | TGI (HOP-18 NSCLC) [µM] | TGI (LXFL 529 NSCLC) [µM] | TGI (RXF-631 renal) [µM] | TGI (XF 498 CNS) [µM] | TGI (MDA-N) [µM] | TGI (DMS 114 small cell lung) [µM]
20 | COc1ncnc2c(NC3OC(CO)C(O)C3O)ncnc12 (stereo not drawn) | 5.74 |  | 83.4 | 15.4 | 7.84 | 22.8 | 1.09
21 | CCCCCCCCCCCCCCCC(=O)NC1CCc2cc(O)c(O)c(O)c2-c2ccc(SC)c(=O)cc21 (stereo not drawn) | 16.4 |  | 8.04 | 28.1 | 29.6 |  | 6.37
22 | CC1CCC2(OC1)OC1CC3C4CC=C5CC(OC6OC(CO)C(OC7OC(C)C(OC8OC(C)C(O)C(O)C8O)C(O)C7O)C(O)C6OC6OC(C)C(O)C(O)C6O)CCC5(C)C4CCC3(C)C1C2C (stereo not drawn) |  |  |  |  |  | 1.43 | 
23 | CCN=C1NN=C(c2ccccc2)c2cc(Cl)ccc2N1 | 26.2 | > 100 |  | 41.7 | 45.2 |  | 43.9
24 | COc1cc2c(cc1OC)-c1c(cnn1C1OC(COC(C)=O)C(OC(C)=O)C(OC(C)=O)C1OC(C)=O)CC2 (stereo not drawn) | > 100 |  | > 100 |  |  |  | > 100
25 | Cc1cccc(C(C)O)n1 (stereo not drawn) |  |  |  |  |  | > 100 | 
26 | C/C(=N\NC(N)=S)c1ccc2c(c1)OCO2 |  | > 100 | > 100 | > 100 | > 100 |  | > 100
27 | CC1(C)OC2C(CO)OC(n3ccc(=O)[nH]c3=O)C2O1 (stereo not drawn) |  |  |  |  |  | > 100 | 
28 | O=C1C(NCCO)=C(N2CC2)C(=O)C(NCCO)=C1N1CC1 | > 40 | > 100 | > 92.9 |  | > 100 | > 100 | > 50.9
29 | CCOC(=O)/C(C#N)=C(O)/C(=C/c1ccccc1Cl)NC(=O)c1ccccc1 | > 100 | > 100 | > 100 |  |  |  | > 100
30 | O=C1CCC(c2nc3ccccc3o2)C(=O)N1 (stereo not drawn) | > 100 | > 100 | > 100 | > 100 |  |  | > 100
31 | O=C(Nc1ccc(C(F)(F)F)cc1[N+](=O)[O-])C(=O)C(C(=O)c1ccc2ccccc2c1)C1OC(=O)c2ccccc21 (stereo not drawn) |  |  | 20.9 |  |  |  | 40.5
32 | CC1C(=O)N=C2C(=CN(Cc3ccccc3)c3ccccc32)C(=O)N1C (stereo not drawn) |  |  |  |  |  | > 100 | 
33 | C[C@]12CC[C@H]3[C@@H](CCC4=CC(=O)CC[C@@H]43)[C@@H]1CC[C@@H]2OC1(O)C(=O)c2ccccc2C1=O |  |  |  |  |  | 35.1 | 
34 | O=C(CC(=O)Nc1ccc(Cl)cc1)NNCC(=O)Nc1nc(-c2ccccc2)cs1 | > 100 | > 100 | > 100 |  | > 100 |  | > 100
35 | O=[N+]([O-])c1ccc(Cc2nc3ccccc3s2)cc1 | > 100 | > 100 | > 100 |  | > 100 |  | > 100
36 | CCOC(=O)C1CCC/C1=N\N=C(N)N (stereo not drawn) (tested in a mixture with another compound) |  |  |  |  |  | > 100 | 
37 | Cc1cccc(C(C)(C)C)c1NC(=O)CC1C(=O)Nc2ccccc2S1=O (stereo not drawn) | > 100 |  | > 100 | > 100 | > 100 |  | 
38 | N#CCCc1nc2ccc(Br)cc2c(=O)n1-c1ccc(O)c([N+](=O)[O-])c1 |  |  | 40 | 33.9 | 34.9 |  | 

— PubChem BioAssay (NCI)
